Results: patent publication US9249208B2, “Citrulline peptides derived from fibrin and recognized by rheumatoid arthritis specific autoantibodies, and the use thereof” (Biomerieux, priority 2004, dated 2016)
Marks after values point to notes of the source that are not given here. Where no end group is shown, it is not given here. [ ]: non-standard residue; d: D form. Cit = NC(=O)NCCC[C@H](N)C(=O)O

Assays:
Assay type in all cases: binding, human
[1] = system: anti-citrullinated protein autoantibodies (ACPAs); assay: ELISA of reactive citrullinated fibrin peptides with the 20 individual sera of mixtures A and B; conditions: for Number of positive sera: sera with delta OD not <0.25 out of sera tested (20, or 10 of mixture A only); for delta OD: best coating buffer per peptide
Procedure: The 14 peptides carrying the most reactive epitopes (delta OD≧0.5 for one or other of the mixtures of serum (A and B) with at least one of the three coating buffers) were tested independently with the 20 sera constituting the mixtures A and B, in order to evaluate the reactivity profile of each of these peptides. The tests were carried out by ELISA under the same conditions as in Example 2 above, with the exception that, for each pair of peptides, the coating buffer selected was that that had made it possible to obtain the strongest reactivity with respect to this peptide during the screening (the buffer for which the sum of the delta ODs obtained respectively for the serum mixtures A and B was at a maximum). […] Thus, for each serum, the dilution that made it possible to obtain an OD of 1 by ELISA on deiminated fibrinogen was selected (Nogueira L, 2002, mentioned above). The dilutions ranged from 1/20 to 1/2700.

[2] = system: anti-citrullinated protein autoantibodies (ACPAs); assay: ELISA of citrullinated/native fibrin peptide pairs with serum mixtures A and B and control mixture (delta OD); conditions: mean of two determinations
Procedure: Each pair of peptides (citrullinated and noncitrullinated) was assayed by ELISA with a mixture, in equal parts, of 10 sera having no ACPAs (control mixture) and with the 2 mixtures A and B described in Example 1.
Each pair of peptides (native and citrullinated form) was tested on the same plate and a pair of control peptides—citrullinated “filaggrin” peptide cfc6 and its corresponding native peptide cf0 (Schellekens G A, 1998, mentioned above)—was included in each experiment, which made it possible to calculate an inter-assay coefficient of variation and to perform corrections.
All the incubations were carried out for 1 h at 4° C. and were followed by washing in PBS-0.1% Tween. The peroxidase activity was visualized with a solution of ortho-phenylenediamine (2 mg/ml—Sigma) in hydrogen peroxide (0.03%—Sigma). The reaction was stopped after 5 minutes by adding 4M sulfuric acid, and the optical density (OD) at 492 nm was measured by virtue of an automatic spectrophotometer (Multiskan, Thermo Labsystems).
The specific reactivity of the mixtures of sera with regard to the citrullinated peptides corresponded to the difference between the OD obtained with the citrullinated peptide and that obtained with the corresponding native peptide (delta OD). The results correspond to the mean of two determinations. Any citrullinated peptide making it possible to obtain a delta OD of greater than 0.250 for at least one of the two mixtures A and B after coating in at least one of the three buffers, was considered to be reactive.

[3] = system: anti-citrullinated protein autoantibodies (ACPAs); assay: ELISA comparing amidated and nonamidated β60-74Cit60,72,74 with serum mixtures A and B; conditions: for delta OD: coating in PBS, versus noncitrullinated β60-74, mean of two experiments
Text: ELISA plates were coated with the peptide β60-74Cit60,72,74, in which the C-terminal function of the carboxy-terminal citrullyl residue is not amidated (form carrying a terminal COOH function, hereinafter referred to as “nonamidated form”), with the peptide […], in which the C-terminal function of the carboxy-terminal citrullyl residue is amidated (form carrying a terminal CONH2 function, hereinafter referred to as “amidated form”) and the noncitrullinated peptide β60-74 (in which the C-terminal function of the carboxy-terminal arginyl residue is not amidated), all diluted in PBS. The serum mixtures A and B described in Example 1 were tested according to the method described in Example 2. As in Example 2, the specific reactivity of the peptide in nonamidated form or in amidated form corresponded to the difference between the OD obtained with these two citrullinated peptides and that obtained with the noncitrullinated peptide β60-74. […] The results correspond to the mean of two experiments, each comprising two determinations.

[4] = Mixture A of sera 1/50, coating buffer PBS pH 7.4
[5] = Mixture A of sera 1/50, coating buffer acetate pH 5.0
[6] = Mixture A of sera 1/50, coating buffer carbonate pH 9.0
[7] = Mixture B of sera 1/50, coating buffer PBS pH 7.4
[8] = Mixture B of sera 1/50, coating buffer acetate pH 5.0
[9] = Mixture B of sera 1/50, coating buffer carbonate pH 9.0

Row | Substance | Number of positive sera [1] | delta OD ([1]; serum 97.0169, dilution 1/400) | delta OD (citrullinated minus native peptide, 492 nm) [2, 4] | delta OD (citrullinated minus native peptide, 492 nm) [2, 5] | delta OD (citrullinated minus native peptide, 492 nm) [2, 6] | delta OD (citrullinated minus native peptide, 492 nm) [2, 7] | delta OD (citrullinated minus native peptide, 492 nm) [2, 8] | delta OD (citrullinated minus native peptide, 492 nm) [2, 9] | delta OD ([1]; serum 97.0311, dilution 1/200) | delta OD ([1]; serum 97.0796, dilution 1/500) | delta OD ([1]; serum 97.0907, dilution 1/300) | delta OD ([1]; serum 97.1210, dilution 1/300) | delta OD ([1]; serum 97.1474, dilution 1/20) | delta OD ([1]; serum 97.0323, dilution 1/120) | further results
1 | α588-602Cit591: citrullinated synthetic peptide, fibrin α-chain residues 588-602 (second series) (SYN[Cit]GDSTFESKSYK) | 2/20 | 1.34 | 0.16 | 0.05 | 0.36 | 0.33 | 0.06 | 0.67 |  |  |  |  |  |  | delta OD ([1]; serum 97.1795, dilution 1/50): 0.79
2 | α621-635Cit621,627,630: citrullinated synthetic peptide, fibrin α-chain residues 621-635; fits SEQ ID NO: 12 X1GHAKSX2PVX3GIHTS ([Cit]GHAKS[Cit]PV[Cit]GIHTS) | 10/20 | 0.80 | 1.57 | 0.25 | 1.17 | 1.51 | 0.18 | 1.20 | 0.37 | 0.69 | 1.04 | 0.37 | 0.59 |  | delta OD ([1]; serum 97.0244, dilution 1/2700): 0.50; delta OD ([1]; serum 97.0388, dilution 1/50): 2.71; delta OD ([1]; serum 97.0468, dilution 1/700): 0.81; delta OD ([1]; serum 97.1548, dilution 1/60): 3.29
3 | β60-74Cit60,72,74: citrullinated synthetic peptide, fibrin β-chain residues 60-74, C-terminal citrullyl amidated; fits SEQ ID NO: 1 X1PAPPPISGGGYX2AX3 (XPAPPPISGGGYXAX; HELM PEPTIDE1{[Cit].P.A.P.P.P.I.S.G.G.G.Y.[Cit].A.[Cit].[am]}$$$$V2.0; N-terminus assumed; SMILES CC[C@H](C)[C@H](NC(=O)[C@@H]1CCCN1C(=O)[C@@H]1CCCN1C(=O)[C@@H]1CCCN1C(=O)[C@H](C)NC(=O)[C@@H]1CCCN1C(=O)[C@@H](N)CCCNC(N)=O)C(=O)N[C@@H](CO)C(=O)NCC(=O)NCC(=O)NCC(=O)N[C@@H](Cc1ccc(O)cc1)C(=O)N[C@@H](CCCNC(N)=O)C(=O)N[C@@H](C)C(=O)N[C@@H](CCCNC(N)=O)C(N)=O) | 14/20 | 0.31 | 2.06 | 1.02 | 1.27 | 2.69 | 2.83 | 2.72 | 1.93 | 0.36 | 1.17 | 3.33 | 0.37 | 1.73 | delta OD ([1]; serum 95.0256, dilution 1/35): 3.48; delta OD ([1]; serum 97.0244, dilution 1/2700): 1.23; delta OD ([1]; serum 97.0459, dilution 1/60): 0.71^c; delta OD ([1]; serum 97.0468, dilution 1/700): 1.08; delta OD ([1]; serum 97.0506, dilution 1/75): 1.93; delta OD ([1]; serum 97.0794, dilution 1/50): 0.75; delta OD ([1]; serum 97.1548, dilution 1/60): 1.48; delta OD ([3]; Mixture A): 2.13; delta OD ([3]; Mixture B): 2.74; reactivity of amidated versus nonamidated form ([3]; serum mixtures A and B, PBS coating): clearly greater than that of the nonamidated form
4 | β60-74Cit60, 72, 74 nonamidated: citrullinated synthetic peptide, fibrin β-chain residues 60-74, C-terminal citrullyl not amidated (terminal COOH) (RPAPPPISGGGYRAR; HELM PEPTIDE1{[Cit].P.A.P.P.P.I.S.G.G.G.Y.[Cit].A.[Cit]}$$$$V2.0; N-terminus assumed; SMILES CC[C@H](C)[C@H](NC(=O)[C@@H]1CCCN1C(=O)[C@@H]1CCCN1C(=O)[C@@H]1CCCN1C(=O)[C@H](C)NC(=O)[C@@H]1CCCN1C(=O)[C@@H](N)CCCNC(N)=O)C(=O)N[C@@H](CO)C(=O)NCC(=O)NCC(=O)NCC(=O)N[C@@H](Cc1ccc(O)cc1)C(=O)N[C@@H](CCCNC(N)=O)C(=O)N[C@@H](C)C(=O)N[C@@H](CCCNC(N)=O)C(=O)O) |  |  |  |  |  |  |  |  |  |  |  |  |  |  | delta OD ([3]; Mixture A): 0.30; delta OD ([3]; Mixture B): 1.16
5 | β210-224Cit224: citrullinated synthetic peptide, fibrin β-chain residues 210-224 (QKLESDVSAQMEYC[Cit]) | 6/20 |  | 0.29 | 0.25 | 1.14 | 0.60 | 0.00 | 1.56 | 0.46 | 0.67 | 0.33 | 0.72 |  | 0.36 | delta OD ([1]; serum 97.1795, dilution 1/50): 0.49
6 | β281-295Cit285,294: citrullinated synthetic peptide, fibrin β-chain residues 281-295 (second series) (VIQN[Cit]QDGSVDFG[Cit]K) | 6/20 |  | 0.60 | 0.12 | 0.61 | 0.75 | 0.11 | 0.71 |  |  |  |  | 0.36 | 1.16 | delta OD ([1]; serum 97.0459, dilution 1/60): 2.22; delta OD ([1]; serum 97.0506, dilution 1/75): 1.80; delta OD ([1]; serum 97.0524, dilution 1/200): 0.25; delta OD ([1]; serum 97.0794, dilution 1/50): 0.26
7 | β433-447Cit436,445: citrullinated synthetic peptide, fibrin β-chain residues 433-447 (second series) (WYN[Cit]CHAANPNG[Cit]YY) | 2/10 |  | 0.58 | 0.41 | 0.67 | 0.00 | 0.00 | 0.03 |  | 0.71 |  |  |  |  | delta OD ([1]; serum 97.0388, dilution 1/50): 1.14
